This note sets out measurements from US10039729B2, “Use of kukoamine A and kukoamine B” (Tianjin Chase Sun Pharmaceutical Co., Ltd., priority 2010, dated 2018).

This assay has as its system NF-κB. In words: NF-κB activation in RAW264.7 cells (ELISA of nuclear p50/p65, luciferase reporter gene assay). As to conditions: KB 200 μM. It is filed as cell-based, murine. How it is done: […]
Detection of NF-κB activation using ELISA: Each well was added with 30 μl binding solution (3.2 μl DTT and 16.2 μl Herring sperm DNA were diluted in 1.6 ml binding solutions); each sample well was added with 20 μl sample ([…]); positive control wells was added with 20 μl p50; blank control wells were added with 20 μl dissolution buffer (0.9 μl 1M DTT and 1.8 μl protease inhibitors was diluted in 177.3 μl dissolution buffer AM2); the microtiter plate was shaken for 30 seconds for completely mixing, incubated at room temperature for 1 h, and then washed thrice with 200 μl 1×wash solution (450 μl 10×wash solution were diluted in 4.05 ml ddH2O) and gentle shaking for 5 min each time; each well was added with 100 μl NF-κB antibody (1:1000), incubated for 1 h, then washed thrice with 200 μl 1×wash solution and gentle shaking for 5 min each time; each well was added with 100 μl HRP antibody (1:1000), incubated for 1 h, then washed four times with 200 μl 1×wash solution and gentle shaken for 5 min each time; each well was added with 100 μl detection reagent, incubated for 5 min away from light, and then added with 100 μl stop solution; the absorbance value at 450 nm of each well was detected. […]
(In an ELISA, binding on a coated surface is turned into a signal by an enzyme label.)

On to `NCCCN(CCCCNCCCNC(=O)CCc1ccc(O)c(O)c1)C(=O)CCc1ccc(O)c(O)c1` [KB, Kukoamine B], for which, where the note is “2 h, ELISA”, the “increase of p50 and p65 levels in nuclear proteins induced by LPS and CpG DNA” value is reported as “significantly inhibited”. The “NF-κB activation induced by LPS and CpG DNA (luciferase reporter gene assay)” value (6 h) is “inhibit NF-κB activation”.
